From PubChem BioAssay AID1159536 (DiRusso Lab, Biochemistry Department, University of Nebraska, 2015) come the findings set out here.

Inconclusive results are not listed. Activity calls are given as the source filed them. How the calls were made is not given here.

The assay concerns Chlamydomonas reinhardtii, Nile Red lipid fluorescence, 72 h. Briefly: algal triacylglycerol accumulation inducers, dose response, qHTS, Chlamydomonas reinhardtii (AID 1159536).
In the case of `OC(COc1ccc(Br)cc1)CN1CCCCCC1` (centres undefined), the EC50 is 10.6 µM (inactive).

For the compound `COc1cc(CN2CCN(Cc3ccccc3)CC2)cc(OC)c1`, the 50% effective concentration (EC50) is 8.98 µM.

Take `COc1cccc(N2CCN(Cc3ccsc3)CC2)c1`: the concentration giving a half-maximal response (EC50) was 10 µM.

In the case of `CC(C)NC(=O)c1ccccc1NC(=O)c1ccc(Cl)cc1`, the EC50 was 0.59 µM (inactive).

In the case of `c1ccc(CN2CCN(C3CC4CCC3C4)CC2)cc1` (centres undefined), the EC50 is 10.1 µM.

With `Brc1ccc2ncnc(N3CCN(Cc4ccccc4)CC3)c2c1`, the EC50 is 2.02 µM.

In the case of `O=C(O)C1CC=CCC1C(=O)Nc1ccc(F)cc1F` (centres undefined), the EC50 was 13.2 µM (inactive).

With `O=C(NCCc1ccc(Cl)cc1)C(=O)Nc1nccs1`, the EC50 was 10.2 µM (inactive).

As for `O=C(Nc1ccc([N+](=O)[O-])cc1)c1c(F)c(F)c(F)c(F)c1F`, the EC50 was 1.36 µM (inactive).

Consider `O=C1CC(N2CCN(Cc3ccc4c(c3)OCO4)CC2)C(=O)N1CCc1ccccc1` (centres undefined), for which the EC50 is 2.63 µM.

For `Cc1c(C(=O)Nc2ccc(F)c(F)c2)cccc1[N+](=O)[O-]`, the EC50 was 17.5 µM (inactive).

Consider `COCCNS(=O)(=O)c1cc(Cl)ccc1OC`, for which the EC50 was 2.98 µM (inactive).

Turning to `Cc1ccc(CN2CCCC(CO)C2)cc1` (centres undefined), the 50% effective concentration (EC50) is 10.1 µM.

For the compound `CN1CCC(N(C)Cc2cc(Cl)ccc2O)CC1`, the concentration giving a half-maximal response (EC50) was 2.56 µM.

Regarding `O=C(O)C1C2C=CC(O2)C1C(=O)Nc1ccccc1F` (centres undefined), the EC50 was 14.8 µM (inactive).

As to `CC1CCC(N2CCN(Cc3ccccc3)CC2)CC1` (centres undefined), the EC50 is 5.57 µM.

In the case of `C=CCc1ccccc1OCC(O)CN(C)C1CCCCC1` (centres undefined), the half-maximal effective concentration (EC50) is 4.88 µM.

Turning to `Oc1ccc(Br)cc1CN1CCN(CC2CC3C=CC2C3)CC1` (centres undefined), the EC50 is 9.95 µM.

For the compound `O=C(Nc1cccnc1)c1ccc(S(=O)(=O)c2ccc(Cl)cc2)cc1`, the EC50 was 6.72 µM (inactive).

For `C/C(=C\c1ccccc1)CN1CCN(C)CC1`, the EC50 was 1.01 µM.

In the case of `COc1cc(C(=O)Nc2nc3c(s2)CCCC3)cc(OC)c1OC`, the EC50 is 0.379 µM (inactive).

In the case of `COc1cccc(N2CCN(CC3CC4C=CC3C4)CC2)c1` (centres undefined), the EC50 was 1.26 µM.

As to `Clc1ccc(OCCCCN2CCOCC2)c(Br)c1`, the EC50 is 0.854 µM.

In the case of `Oc1ccc(CN2CCN(c3ccccc3Cl)CC2)cc1`, the EC50 is 0.632 µM.

Consider `Cc1ccc(C(=O)c2ccc(N3CCN(C)CC3)c([N+](=O)[O-])c2)cc1`, for which the EC50 is 2.59 µM (inactive).

Take `CN(CC(O)COc1ccc(F)cc1)C1CCCCC1` (centres undefined): the concentration for a half-maximal effect (EC50) is 11.2 µM.

For the compound `Cc1ccc(OCCCN2CCOCC2)c(C)c1`, the half-maximal effective concentration (EC50) is 10.3 µM.

As to `Cn1c(SCC(=O)NCc2ccccc2)nnc1-c1ccc(C(C)(C)C)cc1`, the EC50 is 7.31 µM (inactive).

Turning to `OC(CNCCc1ccccc1)c1ccccc1` (centres undefined), the EC50 was 6.91 µM.

As for `Oc1ccc(CN2CCN(c3cccc(Cl)c3)CC2)cc1`, the EC50 is 0.0276 µM.

As for `CN(CCc1ccccc1)C1CCN(Cc2ccccc2)CC1`, the 50% effective concentration (EC50) was 0.0218 µM.

In the case of `CCCCNc1cc(C)nc(N2CCOCC2)n1`, the EC50 was 13.1 µM.

`CC1CN(CC(O)COc2ccc(C(C)(C)C)cc2)CC(C)O1` (centres undefined): the EC50 is 9.95 µM.

`CN1CC=C(CNc2cccc3c2CCCC3)CC1`: the 50% effective concentration (EC50) was 2.58 µM.

For the compound `CCC(C)c1ccc(OCCCN2CCN(C)CC2)cc1` (centres undefined), the half-maximal effective concentration (EC50) is 0.902 µM.

On to `Cc1cccc(-c2cc(NC(=O)c3ccc([N+](=O)[O-])cc3)n[nH]2)c1`, for which the EC50 was 6.94 µM.

On to `CC(C(=O)NCc1ccc(Cl)cc1)N(c1ccccc1)S(C)(=O)=O` (centres undefined), for which the EC50 is 11.3 µM (inactive).

On to `C=C(C)CN(CC)C(=O)C1CCN(CC2CC=CCC2)CC1` (centres undefined), for which the concentration giving a half-maximal response (EC50) is 2.73 µM.

Regarding `CC(C)(Oc1ccc(Cl)cc1)C(=O)N1CCN(c2ccc(F)cc2)CC1`, the EC50 was 2.13 µM (inactive).

Turning to `CCCCOc1ccc(CN2CCN(c3ccc([N+](=O)[O-])cc3)CC2)cc1`, the EC50 was 2.7 µM.

As to `C(=C\c1ccccc1)/CN1CCN(CC2CCCCC2)CC1`, the EC50 is 0.644 µM.

In the case of `CCN1CCN(C2CCC(c3ccccc3)CC2)CC1` (centres undefined), the concentration for a half-maximal effect (EC50) was 1.77 µM.

On to `Cc1ccc(OCCCCN2CCCC2)c(Br)c1`, for which the 50% effective concentration (EC50) is 2.65 µM.

On to `CC(C)(Oc1ccc(Cl)cc1)C(=O)Nc1ccc(Br)cc1F`, for which the EC50 is 1.81 µM (inactive).

`CCN1CCN(Cc2ccc(N(CC)CC)cc2)CC1`: the concentration giving a half-maximal response (EC50) is 0.498 µM.

For `Cc1ccc(OCCCCN2CCCC2)cc1C`, the EC50 was 5.2 µM.

Regarding `O=[N+]([O-])c1ccccc1S(=O)(=O)N1CCN(C2CCN(Cc3ccccc3)CC2)CC1`, the concentration for a half-maximal effect (EC50) was 10.7 µM.

Turning to `c1ccc(CCc2nc(-c3ccncc3)no2)cc1`, the EC50 was 5.02 µM.

On to `O=C(Nc1ccccc1)Nc1ccccc1C(=O)N1CCOCC1`, for which the EC50 is 22.2 µM (inactive).

As for `CCC(C)c1ccc(OCCN2CCCC2)cc1` (centres undefined), the EC50 was 5.17 µM.

Regarding `c1ccc(CN2CCC(N3CCN(C4CC5CCC4C5)CC3)CC2)cc1` (centres undefined), the EC50 was 9.98 µM.

Take `C=CCc1cc(Cl)ccc1OCCN1CCN(C)CC1`: the half-maximal effective concentration (EC50) is 14.1 µM.

For the compound `c1ccc(N2CCN(CC3CCCCC3)CC2)cc1`, the concentration for a half-maximal effect (EC50) was 1.03 µM.

Take `Cc1ccc(CN(C)C2CCN(C)CC2)s1`: the EC50 was 10.2 µM.

On to `Clc1ccc(OCCCCN2CCCC2)c(Br)c1`, for which the EC50 is 2.55 µM.

Regarding `Cc1ccc(C(=O)NC(C)C2CC3CCC2C3)s1` (centres undefined), the EC50 was 15.3 µM (inactive).

`O=[N+]([O-])c1ccc(CN2CCN(C3CCCC3)CC2)cc1`: the concentration giving a half-maximal response (EC50) was 0.0669 µM.

Regarding `COc1ccc(OCCCN2CCCCC2)cc1`, the EC50 was 13.8 µM.

Turning to `O=S(=O)(c1ccc(Cl)c(Cl)c1Cl)N1CCN(c2ccc(F)cc2)CC1`, the EC50 was 0.0144 µM (inactive).

Turning to `Oc1ccc(CN2CCN(Cc3ccccc3)CC2)cc1`, the 50% effective concentration (EC50) was 11.2 µM.

In the case of `Cc1ccc(OCCCn2ccnc2)c(Br)c1`, the EC50 is 1.26 µM.

Turning to `CC1(C)CC(NC(=O)Cc2ccccc2[N+](=O)[O-])CC(C)(C)N1`, the EC50 is 10.3 µM (inactive).

In the case of `COc1ccccc1N1CCN(C2CCN(Cc3cccc(C)c3)CC2)CC1`, the EC50 is 10.4 µM.

Turning to `CC(C)NCC(=O)NC12CC3CC(CC(C3)C1)C2`, the EC50 was 0.638 µM.

As to `Cc1cccc(N2CCN(C(=O)C3CCN(CC4CCCCC4)CC3)CC2)c1C`, the concentration giving a half-maximal response (EC50) was 4.62 µM.

With `COc1cccc(N2CCN(C3CCCC(C)C3)CC2)c1` (centres undefined), the half-maximal effective concentration (EC50) was 6.34 µM.

Turning to `Oc1ccc(Cl)cc1CN1CCN(Cc2ccccc2)CC1`, the EC50 was 3.56 µM.

As to `Cc1cc(OCCCCN2CCN(C)CC2)cc(C(C)C)c1`, the EC50 is 1.92 µM.

As to `CC(=O)c1nc2cc([N+](=O)[O-])ccc2n1Cc1ccccc1`, the EC50 was 10 µM (inactive).

Consider `CSc1ccc(CN2CCSCC2)cc1`, for which the EC50 was 10.5 µM (inactive).

Turning to `CCc1ccc(CN2CCN(CC)CC2)cc1`, the EC50 was 4.68 µM.

Consider `O=[N+]([O-])c1ccc(CNC2CCCC2)cc1`, for which the EC50 was 0.645 µM.

Regarding `CN1CCN(CC#CC=C(c2ccccc2)c2ccccc2)CC1`, the EC50 was 2.57 µM (inactive).

On to `O=[N+]([O-])c1ccc(CNC2CCCCCC2)cc1`, for which the EC50 was 1.88 µM.

On to `Cc1ccc(OCCCCN2CCOCC2)cc1`, for which the EC50 was 4.2 µM.

Consider `COc1ccc(CNC2CCSC2)cc1` (centres undefined), for which the EC50 was 0.314 µM.

With `COc1ccc(C(=O)Nc2sc3c(c2C(N)=O)CCC(C)C3)c(OC)c1` (centres undefined), the EC50 was 15.8 µM (inactive).

As for `O=C(Nc1ccccc1C(=O)Nc1ccccc1Cl)c1ccncc1`, the 50% effective concentration (EC50) is 9.55 µM.

Consider `Cc1ccc(NC(=O)CC(C)C)c(NC(=O)CC(C)C)c1`, for which the EC50 was 7.89 µM (inactive).

Turning to `COc1ccccc1N1CCN(C2CCN(Cc3cccc(Cl)c3)CC2)CC1`, the concentration giving a half-maximal response (EC50) was 10.1 µM.

Turning to `COc1cc2c(cc1OC)CN(Cc1ccc(F)cc1)CC2`, the EC50 was 9.96 µM.

In the case of `Clc1ccc(OCCOCCN2CCCC2)c(Br)c1`, the 50% effective concentration (EC50) is 2.6 µM.

As to `Nn1c(SCC(=O)NC23CC4CC(CC(C4)C2)C3)nnc1-c1ccc(Cl)cc1Cl`, the EC50 was 7.04 µM.

As for `CC(=O)N(C1=C(N(C)C)C(=O)c2ccccc2C1=O)c1ccc(Cl)c(Cl)c1`, the EC50 was 2.65 µM (inactive).

Consider `CN1CCN(CCCOc2cc(Cl)ccc2Cl)CC1`, for which the EC50 was 14.1 µM.

Consider `CCS(=O)(=O)N1CCN(C2CCCCCCC2)CC1`, for which the EC50 is 5.99 µM.

With `CCN(CC)c1cc(C)nc(N)n1`, the EC50 is 2.53 µM (inactive).

Consider `c1ccc(N2CCN(Cc3ccsc3)CC2)cc1`, for which the EC50 is 0.652 µM.

Consider `Fc1ccc(CN2CCN(c3ccccc3Cl)CC2)cc1`, for which the EC50 is 1.4 µM.

As to `COc1cc(Cl)c(S(=O)(=O)NCCCN2CCOCC2)cc1Cl`, the half-maximal effective concentration (EC50) was 3.61 µM.

In the case of `O=C(Nc1ccc(Br)cc1)c1ccccc1Cl`, the 50% effective concentration (EC50) is 9.96 µM.

Turning to `Cc1cc(C)c(S(=O)(=O)N2CCN(C)CC2)cc1Br`, the concentration for a half-maximal effect (EC50) was 15.8 µM.

With `Cc1ccc(CN2CCN(c3ccc(F)cc3)CC2)cc1`, the EC50 is 0.00439 µM.

In the case of `Cc1ccc2nc(NC(=O)C3CC3)sc2c1`, the EC50 is 15.1 µM (inactive).

As for `Cc1ccsc1/C=C(\C#N)c1nc(-c2ccc([N+](=O)[O-])cc2)cs1`, the EC50 was 14.9 µM (inactive).

For `Cc1ccccc1N1CCN(Cc2ccc(F)cc2)CC1`, the EC50 was 1.35 µM.

As to `CCN1CCC(N2CCN(c3ccc(Cl)cc3)CC2)CC1`, the 50% effective concentration (EC50) is 2.59 µM.

As for `COc1ccc(C(=O)NCCN2CCOCC2)cc1[N+](=O)[O-]`, the EC50 was 5.99 µM (inactive).

Consider `Fc1ccc(N2CCN(Cc3ccsc3)CC2)cc1`, for which the EC50 was 8.16 µM.

With `CCc1ccc(CN2CCC(C(=O)N(CC)Cc3ccccc3)CC2)cc1`, the concentration for a half-maximal effect (EC50) was 0.708 µM.

Consider `Cc1ccc(NC(=O)CSc2nnc(-c3ccc(Cl)cc3Cl)n2N)c(C)c1`, for which the EC50 is 2.46 µM (inactive).

Regarding `CC(=O)Nc1ccc(S(=O)(=O)Nc2cc([N+](=O)[O-])ccc2C)cc1`, the EC50 was 3.21 µM (inactive).

As to `Cc1ccc(C)c(N2CCN(CC3CC4C=CC3C4)CC2)c1` (centres undefined), the concentration for a half-maximal effect (EC50) is 30.4 µM.

In the case of `COc1ccc(CNC2CCCC(C)C2)cc1` (centres undefined), the half-maximal effective concentration (EC50) is 7.06 µM.

Consider `O=[N+]([O-])c1cccc(CNC2CCCCCC2)c1`, for which the EC50 was 1.1 µM.

Take `CCN1CCN(C2CCC(C)CC2)CC1` (centres undefined): the half-maximal effective concentration (EC50) is 9.97 µM.

Take `CS(=O)(=O)N1CCN(C2C3CC4CC(C3)CC2C4)CC1` (centres undefined): the EC50 is 4.68 µM.

For `COc1ccc(CN(C)C2CCCCC2)cc1`, the 50% effective concentration (EC50) is 2.79 µM.

Regarding `CC1CCN(S(=O)(=O)c2ccc(NC(=O)c3cccc([N+](=O)[O-])c3)cc2)CC1`, the EC50 is 2.7 µM.
